Reference: patent US20170290774A1, “NEUROKININ-1 RECEPTOR ANTAGONIST COMPOSITION FOR TREATMENT OF DISEASES AND CONDITIONS OF THE RESPIRATORY TRACT” (PLUS VITECH, S.L., priority 2014, published 2017)

How the values were obtained:
[1] = test system: TNF-α; experiment: Immunohistochemistry of TNF-α in respiratory tract tissue of sodium hypochlorite aerosol-treated rabbits; type: in vivo, New Zealand albino rabbits
Excerpt: (§1) It is known that the factors TGF-α, TGF-β 1, TGF-β 2, TGF-β 3, SPARC, MMP-3; MMP-7, MMP-9, MMP-11, MMP-13 and MMP-14, TGF-β, NF-kB, EGF, MMP-9, VEGF and TNF-α which are produced by lung cells (pneumocytes, fibroblasts and vascular endothelial cells) and inflammatory cells (macrophages, lymphocytes and polymorphonuclear leukocytes) are involved in the pathophysiology and development of said respiratory tract diseases. […] Herein, 27 New Zealand albino rabbits (New Zealand White Rabbit) with an initial average weight about 3 kg were used in this example. All subjects were administered an aerosol of a solution consisting of a mixture of water and sodium hypochlorite (35 g sodium hypochlorite per liter of water) at a rate of 5 mL of said solution by inhalation three times a day for 7 days (days 1 to 7 of experimentation). Subsequently, from days 3 to 7, a group of 3 rabbits (Group 1) was administered an oral dose of 10 mg/kg body weight per day, another group of 3 rabbits (Group 2) was administered an oral dose of 40 mg/kg body weight per day, a third group (Group 3) was administered an oral dose of 80 mg/kg body weight per day and a fourth group (Group 4) was administered an oral dose of 100 mg/kg body weight per day. […] This mixture was administered as an aerosol by inhalation, also from days 3 to 7, to a group of 3 rabbits (group 5) at a dose of 0.05 mg/kg body weight per day, to another group of three rabbits (Group 6) at a dose of 0.1 mg/kg body weight per day, to another group of three rabbits (Group 7) at a dose of 0.2 mg/kg body weight per day and to another group of three rabbits (Group 8) at a dose of 0.4 mg/kg body weight per day. A placebo consisting only of olive oil was administered from days 3 to 7 to a control group of 3 rabbits (placebo group). In parallel, 3 rabbits were kept under identical conditions but were not administered any treatment nor the aforementioned sodium hypochlorite solution (control group). […] On day 7 of the experiment all animals were euthanized and necropsied. […] Samples were taken at the peripheral level of the lung parenchyma, just below the pleural surface. Tissue samples were also taken from the nasal cavity, pharynx, larynx and bronchi. Immunohistochemistry studies were performed for all samples to evaluate the levels of the markers TGF-α, TGF-β 1, TGF-β 2, TGF-β 3 SPARC, MMP-3; MMP-7, MMP-9, MMP-11, MMP-14, TGF-β, TNF-α and VEGF. In said immunohistochemistry studies, a sample of each sample was dehydrated by treatment with increasing concentrations of ethanol and finally xylene. Subsequently said dried samples were embedded in paraffin, thus creating a block. Said paraffin blocks were cut on a microtome to a thickness of 5 μm, and the resulting sections (slices) were placed on slides suitable for conducting immunohistochemistry techniques. Subsequently, the sections were deparaffinised by immersion in xylene and then rehydrated through immersion in a series of solutions containing decreasing concentrations of ethanol and, finally, water. […] The samples were then allowed to cool to room temperature over 10 minutes. Endogenous peroxidase activity was blocked by treatment with 3% hydrogen peroxide over 30 min at room temperature. […] In order to verify the expression of NK1 receptors, the cell samples were incubated in the presence of anti-NK1 antibodies ([…], Sigma-Aldrich) diluted 1:1000 at 4° C. overnight. After this time they were washed in 0.05M Tris buffer at room temperature. Subsequently, Envision System-HRP (Dako) reagents were added for 30 min at room temperature. Once this time had expired, the samples were again washed with 0.05 M Tris buffer, and immunoreactivity was visualized by light microscopy with a chromogenic solution with 3,3'-diaminobenzidine (DAB+; Dako, USA). In order to differentiate the cell nuclei, these were lightly stained with haematoxylin. Samples that were not incubated with the primary antibody, but wherein this was replaced by a non-immune serum were used as negative controls. […]

[2] = test system: MMP-11; experiment: Immunohistochemistry of MMP-11 in respiratory tract tissue of sodium hypochlorite aerosol-treated rabbits; type: in vivo, New Zealand albino rabbits
Excerpt: as §1

[3] = bronchial tissue, Group 1, oral 10 mg/kg per day
[4] = bronchial tissue, Group 2, oral 40 mg/kg per day
[5] = bronchial tissue, Group 3, oral 80 mg/kg per day
[6] = bronchial tissue, Group 4, oral 100 mg/kg per day
[7] = laryngeal tissue, Group 1, oral 10 mg/kg per day
[8] = laryngeal tissue, Group 2, oral 40 mg/kg per day
[9] = laryngeal tissue, Group 3, oral 80 mg/kg per day
[10] = laryngeal tissue, Group 4, oral 100 mg/kg per day
[11] = laryngeal tissue, Group 5, inhalation 0.05 mg/kg per day
[12] = laryngeal tissue, Group 6, inhalation 0.1 mg/kg per day
[13] = laryngeal tissue, Group 7, inhalation 0.2 mg/kg per day
[14] = laryngeal tissue, Group 8, inhalation 0.4 mg/kg per day
[15] = lung tissue, Group 1, oral 10 mg/kg per day
[16] = lung tissue, Group 2, oral 40 mg/kg per day
[17] = lung tissue, Group 3, oral 80 mg/kg per day
[18] = lung tissue, Group 4, oral 100 mg/kg per day
[19] = lung tissue, Group 5, inhalation 0.05 mg/kg per day
[20] = lung tissue, Group 6, inhalation 0.1 mg/kg per day
[21] = lung tissue, Group 7, inhalation 0.2 mg/kg per day
[22] = lung tissue, Group 8, inhalation 0.4 mg/kg per day
[23] = nasal cavity tissue, Group 1, oral 10 mg/kg per day
[24] = nasal cavity tissue, Group 2, oral 40 mg/kg per day
[25] = nasal cavity tissue, Group 3, oral 80 mg/kg per day
[26] = nasal cavity tissue, Group 4, oral 100 mg/kg per day
[27] = nasal cavity tissue, Group 5, inhalation 0.05 mg/kg per day
[28] = nasal cavity tissue, Group 6, inhalation 0.1 mg/kg per day
[29] = nasal cavity tissue, Group 7, inhalation 0.2 mg/kg per day
[30] = nasal cavity tissue, Group 8, inhalation 0.4 mg/kg per day
[31] = pharyngeal tissue, Group 1, oral 10 mg/kg per day
[32] = pharyngeal tissue, Group 2, oral 40 mg/kg per day
[33] = pharyngeal tissue, Group 3, oral 80 mg/kg per day
[34] = pharyngeal tissue, Group 4, oral 100 mg/kg per day
[35] = pharyngeal tissue, Group 5, inhalation 0.05 mg/kg per day
[36] = pharyngeal tissue, Group 6, inhalation 0.1 mg/kg per day
[37] = pharyngeal tissue, Group 7, inhalation 0.2 mg/kg per day
[38] = pharyngeal tissue, Group 8, inhalation 0.4 mg/kg per day

For `C[C@@H](OC1OCCN(Cc2nc(=O)[nH][nH]2)C1c1ccc(F)cc1)c1cc(C(F)(F)F)cc(C(F)(F)F)c1` (stereo in doubt) [Aprepitant, 5-([(2R,3S)-2-((R)-1-[3,5-bis(trifluoromethyl)phenyl]ethoxy)-3-(4-fluorophenyl)morpholino]methyl)-1H-1,2,4-triazol-3(2H)-one], the “Percent increase in TNF-α with respect to the control group” value (“Percent increase in TNF-α” for short) [1, 3] was 789.45%, the “Percent increase in TNF-α” value [1, 4] was 580.67% and the “Percent increase in TNF-α” value [1, 5] was 467.45%. The “Percent increase in TNF-α” value [1, 6] was 356.34%, the “% Med G5/C: percent increase in marker TNF-α with respect to the control group” value ([1]; bronchial tissue, Group 5) was 673.34% and the “% Med G6/C: percent increase in marker TNF-α with respect to the control group” value ([1]; bronchial tissue, Group 6) was 451.23%. For the same compound, the “% Med G7/C: percent increase in marker TNF-α with respect to the control group” value ([1]; bronchial tissue, Group 7) was 325.21%, the “% Med G8/C: percent increase in marker TNF-α with respect to the control group” value ([1]; bronchial tissue, Group 8) was 201.23% and the “Percent increase in TNF-α” value [1, 7] was 1,078.45%. The “Percent increase in TNF-α” value [1, 8] was 809.99%, the “Percent increase in TNF-α” value [1, 9] was 708.73% and the “Percent increase in TNF-α” value [1, 10] was 509.87%. The “Percent increase in TNF-α” value [1, 11] was 879.34%, the “Percent increase in TNF-α” value [1, 12] was 456.34% and the “Percent increase in TNF-α” value [1, 13] was 323.12%. The “Percent increase in TNF-α” value [1, 14] was 150.34%, the “Percent increase in TNF-α” value [1, 15] was 859.73% and the “Percent increase in TNF-α” value [1, 16] was 685.01%. The “Percent increase in TNF-α” value [1, 17] was 607.15%, the “Percent increase in TNF-α” value [1, 18] was 463.11% and the “Percent increase in TNF-α” value [1, 19] was 980.46%. The “Percent increase in TNF-α” value [1, 20] was 470.69%, the “Percent increase in TNF-α” value [1, 21] was 218.38% and the “Percent increase in TNF-α” value [1, 22] was 151.28%. The “Percent increase in TNF-α” value [1, 23] was 1,411.41%, the “Percent increase in TNF-α” value [1, 24] was 842.93% and the “Percent increase in TNF-α” value [1, 25] was 658.65%. For the same compound, the “Percent increase in TNF-α” value [1, 26] was 418.29%, the “Percent increase in TNF-α” value [1, 27] was 1,495.60% and the “Percent increase in TNF-α” value [1, 28] was 736.83%. The “Percent increase in TNF-α” value [1, 29] was 151.81%, the “Percent increase in TNF-α” value [1, 30] was 122.23% and the “Percent increase in TNF-α” value [1, 31] was 1,357.32%. The “Percent increase in TNF-α” value [1, 32] was 987.63%, the “Percent increase in TNF-α” value [1, 33] was 789.45% and the “Percent increase in TNF-α” value [1, 34] was 418.29%. For the same compound, the “Percent increase in TNF-α” value [1, 35] was 1,532.34%, the “Percent increase in TNF-α” value [1, 36] was 989.36% and the “Percent increase in TNF-α” value [1, 37] was 298.67%. The “Percent increase in TNF-α” value [1, 38] was 167.34%, the “Percent increase in MMP-11 with respect to the control group” value [2, 3] was 784.45% and the “Percent increase in MMP-11 with respect to the control group” value [2, 4] was 673.45%. For the same compound, the “Percent increase in MMP-11 with respect to the control group” value [2, 5] was 563.45%, the “Percent increase in MMP-11 with respect to the control group” value [2, 6] was 453.34% and the “% Med G5/C: percent increase in marker MMP-11 with respect to the control group” value ([2]; bronchial tissue, Group 5) was 653.23%. The “% Med G6/C: percent increase in marker MMP-11 with respect to the control group” value ([2]; bronchial tissue, Group 6) was 438.43%, the “% Med G7/C: percent increase in marker MMP-11 with respect to the control group” value ([2]; bronchial tissue, Group 7) was 342.56% and the “% Med G8/C: percent increase in marker MMP-11 with respect to the control group” value ([2]; bronchial tissue, Group 8) was 159.42%. The “Percent increase in MMP-11 with respect to the control group” value [2, 7] was 789.61%, the “Percent increase in MMP-11 with respect to the control group” value [2, 8] was 576.17% and the “Percent increase in MMP-11 with respect to the control group” value [2, 9] was 456.89%. For the same compound, the “Percent increase in MMP-11 with respect to the control group” value [2, 10] was 324.89%, the “Percent increase in MMP-11 with respect to the control group” value [2, 11] was 768.34% and the “Percent increase in MMP-11 with respect to the control group” value [2, 12] was 504.34%. The “Percent increase in MMP-11 with respect to the control group” value [2, 13] was 203.23%, the “Percent increase in MMP-11 with respect to the control group” value [2, 14] was 167.36% and the “Percent increase in MMP-11 with respect to the control group” value [2, 15] was 522.19%. The “Percent increase in MMP-11 with respect to the control group” value [2, 16] was 416.18%, the “Percent increase in MMP-11 with respect to the control group” value [2, 17] was 339.86% and the “Percent increase in MMP-11 with respect to the control group” value [2, 18] was 251.62%. The “Percent increase in MMP-11 with respect to the control group” value [2, 19] was 520.05%, the “Percent increase in MMP-11 with respect to the control group” value [2, 20] was 222.75% and the “Percent increase in MMP-11 with respect to the control group” value [2, 21] was 169.57%. For the same compound, the “Percent increase in MMP-11 with respect to the control group” value [2, 22] was 128.28%, the “Percent increase in MMP-11 with respect to the control group” value [2, 23] was 1,023.73% and the “Percent increase in MMP-11 with respect to the control group” value [2, 24] was 609.60%. For the same compound, the “Percent increase in MMP-11 with respect to the control group” value [2, 25] was 392.70%, the “Percent increase in MMP-11 with respect to the control group” value [2, 26] was 270.95% and the “Percent increase in MMP-11 with respect to the control group” value [2, 27] was 1,215.12%. For the same compound, the “Percent increase in MMP-11 with respect to the control group” value [2, 28] was 489.76%, the “Percent increase in MMP-11 with respect to the control group” value [2, 29] was 266.47% and the “Percent increase in MMP-11 with respect to the control group” value [2, 30] was 133.33%. For the same compound, the “Percent increase in MMP-11 with respect to the control group” value [2, 31] was 1,387.65%, the “Percent increase in MMP-11 with respect to the control group” value [2, 32] was 1,980.45% and the “Percent increase in MMP-11 with respect to the control group” value [2, 33] was 980.34%. The “Percent increase in MMP-11 with respect to the control group” value [2, 34] was 670.45%, the “Percent increase in MMP-11 with respect to the control group” value [2, 35] was 1,324.23% and the “Percent increase in MMP-11 with respect to the control group” value [2, 36] was 904.21%. For the same compound, the “Percent increase in MMP-11 with respect to the control group” value [2, 37] was 529.34% and the “Percent increase in MMP-11 with respect to the control group” value [2, 38] was 109.43%.
